Results from patent US11071735B2, “Treatment of inflammatory conditions and autoimmune diseases with glucose uptake inhibitors” (Kadmon Corporation, LLC, priority 2017, dated 2021).

Tests used:
Type in all cases: cell-based
GLUT = assay: glycolysis assay (oligomycin + Cell Titer-Glo ATP readout) in HT1080 cells; conditions: 10 μM oligomycin, one hour, glycolytically-derived ATP
Text: The combination of inhibitors of both oxidative phosphorylation and glycolysis synergistically suppress cellular ATP levels. Therefore, our assay utilizes the combination of our glucose uptake inhibitors with oligomycin, a well-characterized inhibitor of ATP synthase. Because oligomycin inhibits ATP derived from oxidative phosphorylation, any remaining ATP production is derived from glycolysis. By reading out cellular ATP levels using the Promega
Titer Glo kit, we can assess the extent of glycolysis inhibition by our glucose uptake inhibitors. Using this experimental set-up in HT1080 cancer cells, we determined the IC50 of glycolysis inhibition for the compounds.
(§1) Determination of glucose uptake/GLUT activity (glycolysis assay): HT1080 cells, DLD1 cells (WT and GLUT1−/−) and human CD4+ T cells were plated in 96-well plates. Cells were exposed to the combination of 10 μM Oligomycin (to block mitochondrial-derived ATP) and the glucose uptake inhibitors disclosed herein for one-hour, after which glycolytically-derived ATP was measured with the Cell Titer-Glo assay kit (Promega). Dose-response curves of the glucose uptake inhibitors disclosed herein were used to determine the IC50 for GLUT activity.

GLUT1 = molecular target: T1, GLUT1 (Homo sapiens, UniProt P11166); assay: glycolysis assay in DLD1 WT cells (rely on GLUT1); conditions: DLD1-WT cells; 10 μM oligomycin, one hour
T1 construct: endogenous in cells; host or cells: DLD1 WT cancer cells
T1 sequence (P11166 1-492): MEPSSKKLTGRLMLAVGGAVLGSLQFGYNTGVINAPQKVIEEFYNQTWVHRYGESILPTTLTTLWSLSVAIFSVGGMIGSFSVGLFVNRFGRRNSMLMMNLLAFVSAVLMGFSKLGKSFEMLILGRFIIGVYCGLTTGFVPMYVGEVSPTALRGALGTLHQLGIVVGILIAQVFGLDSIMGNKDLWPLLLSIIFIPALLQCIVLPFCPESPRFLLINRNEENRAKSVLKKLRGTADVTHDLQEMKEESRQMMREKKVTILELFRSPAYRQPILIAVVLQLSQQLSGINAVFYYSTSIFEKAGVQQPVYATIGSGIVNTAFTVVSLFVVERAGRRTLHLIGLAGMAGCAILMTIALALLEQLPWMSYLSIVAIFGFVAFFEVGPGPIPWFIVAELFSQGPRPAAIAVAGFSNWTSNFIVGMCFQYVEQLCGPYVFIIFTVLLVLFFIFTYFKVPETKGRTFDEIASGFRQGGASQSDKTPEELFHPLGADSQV
Experimental: (§2) Cells were treated with GLUT inhibitors plus oligomycin and subsequently ATP levels were determined using Cell Titer Glo. […] FIG. 1B reports the IC50 of glycolysis inhibition for selected compounds.
(§3) Accordingly, we have investigated the use of inhibitors of GLUT transporters against activated pro-inflammatory immune cells, including but not limited to activated human CD4+ T cells. In order to understand what GLUT transporters are required to sustain glycolysis in activated T cells, we first utilized the syngeneic cancer cell lines DLD1 WT and DLD GLUT1−/− that rely on GLUT1 and GLUT3 expression, respectively, for glucose transport. Within this system, we have identified small molecules that simultaneously have the property of inhibiting both GLUT1 and GLUT3 mediated glucose transport. In addition, we have confirmed the GLUT1-selective nature of a published small molecule inhibitor of GLUT1 (Chem Med Chem. 2016 Oct. 19; 11(20):2261-2271).
as §1

GLUT3 = molecular target: T2, GLUT3 (Homo sapiens, UniProt P11169); assay: glycolysis assay in DLD1 GLUT1−/− cells (rely on GLUT3); conditions: DLD1-KO (GLUT1−/−) cells; 10 μM oligomycin, one hour
T2 construct: endogenous in cells; host or cells: DLD1 GLUT1−/− (knock-out) cancer cells
T2 sequence (P11169 1-496): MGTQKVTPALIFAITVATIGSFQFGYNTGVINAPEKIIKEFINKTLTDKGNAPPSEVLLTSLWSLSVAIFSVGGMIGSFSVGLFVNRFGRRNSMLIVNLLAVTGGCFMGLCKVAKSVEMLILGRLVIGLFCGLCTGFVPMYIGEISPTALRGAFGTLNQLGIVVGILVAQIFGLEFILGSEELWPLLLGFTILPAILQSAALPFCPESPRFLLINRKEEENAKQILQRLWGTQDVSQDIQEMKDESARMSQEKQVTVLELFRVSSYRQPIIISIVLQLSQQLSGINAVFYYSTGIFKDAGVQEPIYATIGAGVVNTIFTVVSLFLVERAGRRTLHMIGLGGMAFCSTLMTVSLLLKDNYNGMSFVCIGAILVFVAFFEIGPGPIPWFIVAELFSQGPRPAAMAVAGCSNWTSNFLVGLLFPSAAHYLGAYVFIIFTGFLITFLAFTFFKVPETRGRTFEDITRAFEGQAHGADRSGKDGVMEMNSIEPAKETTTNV
Experimental: as §2, §3, §1

Compound | IC50 (GLUT) | IC50 (GLUT1) | IC50 (GLUT3)
CCOc1ccc2nc(-c3cccc(OCC(=O)NC(C)(C)CC)c3)nc(Nc3ccc(-c4cn[nH]c4)cc3)c2c1 [Ex. 4, 2-(3-(4-((4-(1H-pyrazol-4-yl)phenyl)amino)-6-ethoxyquinazolin-2-yl)phenoxy)-N-(tert-pentyl)acetamide] | 50 nM | 86 nM | 148 nM
CCOc1ccc2nc(-c3cccc(OCC(=O)NC4CCCC4)c3)nc(Nc3ccc(-c4cn[nH]c4)cc3)c2c1 [Ex. 5, 2-(3-(4-((4-(1H-pyrazol-4-yl)phenyl)amino)-6-ethoxyquinazolin-2-yl)phenoxy)-N-cyclopentylacetamide] | 92 nM | 81 nM | 104 nM
CCOc1ccc2nc(-c3cccc(OCC(=O)NC4CCC4)c3)nc(Nc3ccc(-c4cn[nH]c4)cc3)c2c1 [Ex. 6, 2-(3-(4-((4-(1H-pyrazol-4-yl)phenyl)amino)-6-ethoxyquinazolin-2-yl)phenoxy)-N-cyclobutylacetamide] | 141 nM | 94 nM | 120 nM
CCOc1ccc2nc(-c3cccc(OCC(=O)NC(CC)CC)c3)nc(Nc3ccc(-c4cn[nH]c4)cc3)c2c1 [Ex. 7, 2-(3-(4-((4-(1H-pyrazol-4-yl)phenyl)amino)-6-ethoxyquinazolin-2-yl)phenoxy)-N-(pentan-3-yl)acetamide] | 128 nM | 98 nM | 233 nM
COc1ccc2nc(-c3cccc(OCC(=O)NC4CCCC4)c3)nc(Nc3ccc(-c4cn[nH]c4)cc3)c2c1 [Ex. 10, 2-(3-(4-((4-(1H-pyrazol-4-yl)phenyl)amino)-6-methoxyquinazolin-2-yl)phenoxy)-N-cyclopentylacetamide] | 58.9 nM | 40.5 nM | 110 nM

Second part, the compound after the results:

IC50 (GLUT) | IC50 (GLUT1) | IC50 (GLUT3) | Compound
242 nM | 52 nM | 129 nM | CCOc1ccc2nc(-c3cccc(OCC(=O)NC4CC4)c3)nc(Nc3ccc(-c4cn[nH]c4)cc3)c2c1 [Ex. 1, 2-(3-(4-((4-(1H-pyrazol-4-yl)phenyl)amino)-6-ethoxyquinazolin-2-yl)phenoxy)-N-cyclopropylacetamide]
44 nM | 59.6 nM | 33.6 nM | CCOc1ccc2nc(-c3cccc(OCC(=O)NC(C)(C)C)c3)nc(Nc3ccc(-c4cn[nH]c4)cc3)c2c1 [Ex. 3, 2-(3-(4-((4-(1H-pyrazol-4-yl)phenyl)amino)-6-ethoxyquinazolin-2-yl)phenoxy)-N-(tert-butyl)acetamide]
173 nM | 261 nM | 97.6 nM | COc1ccc2nc(-c3cccc(OCC(=O)NC(C)C)c3)nc(Nc3ccc(-c4cn[nH]c4)cc3)c2c1 [Ex. 8, 2-(3-(4-((4-(1H-pyrazol-4-yl)phenyl)amino)-6-methoxyquinazolin-2-yl)phenoxy)-N-isopropylacetamide]
367 nM | 529 nM | 76.1 nM | COc1ccc2nc(-c3cccc(OCC(=O)NC4CC4)c3)nc(Nc3ccc(-c4cn[nH]c4)cc3)c2c1 [Ex. 9, 2-(3-(4-((4-(1H-pyrazol-4-yl)phenyl)amino)-6-methoxyquinazolin-2-yl)phenoxy)-N-cyclopropylacetamide]
1350 nM | 3480 nM | 325 nM | COc1ccc2nc(-c3cc(F)cc(OCC(=O)NC(C)C)c3)nc(Nc3ccc(-c4cn[nH]c4)cc3)c2c1 [Ex. 11, 2-(3-(4-((4-(1H-pyrazol-4-yl)phenyl)amino)-6-methoxyquinazolin-2-yl)-5-fluorophenoxy)-N-isopropylacetamide]
248 nM | 598 nM | 166 nM | CCCNC(=O)COc1cccc(-c2nc(Nc3ccc(-c4cn[nH]c4)cc3)c3cc(OC)ccc3n2)c1 [Ex. 12, 2-(3-(4-((4-(1H-pyrazol-4-yl)phenyl)amino)-6-methoxyquinazolin-2-yl)phenoxy)-N-propylacetamide]
54 nM | 86.9 nM | 38.9 nM | COc1ccc2nc(-c3cccc(OCC(=O)NC(C)(C)C)c3)nc(Nc3ccc(-c4cn[nH]c4)cc3)c2c1 [Ex. 13, 2-(3-(4-((4-(1H-pyrazol-4-yl)phenyl)amino)-6-methoxyquinazolin-2-yl)phenoxy)-N-(tert-butyl)acetamide]
